Data set [1] can be described thus: Cell viability assay (MTT) on MCF-10A. The settings on record: human, MCF-10A mammary epithelial cells, four days. It is filed as cell-based. How it is done:
A human mammary gland epithelial cell line was used in the cell viability assay (MCF-10A). MCF-10A cells were incubated with compounds 8a–l for four days, and cell viability was determined using an MTT assay.
An MTT assay was performed to investigate the effect of the synthesized compounds on mammary epithelial cells (MCF-10A) at a concentration of 50 µM for the tested compound. The cells were propagated in a medium consisting of Ham’s F-12 medium/Dulbecco’s modified Eagle’s medium (DMEM) (1:1) supplemented with 10% fetal calf serum, 2 mM glutamine, insulin (10 μg/mL), hydrocortisone (500 ng/mL), and epidermal growth factor (20 ng/mL). Trypsin ethylenediamine tetra acetic acid (EDTA) was used to pass the cells every 2–3 days. Ninety-six-well flat-bottomed cell culture plates were used to seed the cells at a density of 10^4 cells mL^−1. The medium was aspirated from all the wells of culture plates after 24 h followed by the addition of synthesized compounds (in 200 μL medium to yield a final concentration of 0.1% (v/v) dimethylsulfoxide) into individual wells of the plates. Four wells were designated to a single compound. The plates were allowed to incubate at 37 °C for 96 h. Afterward, the medium was aspirated, and 3-[4,5-dimethylthiazol-2-yl]-2,5-diphenyltetrazolium bromide (MTT) (0.4 mg/mL) in the medium was added to each well and subsequently incubated for 3 h. The medium was aspirated, and 150 μL dimethyl sulfoxide (DMSO) was added to each well. The plates were vortexed, followed by the measurement of absorbance at 540 nm on a microplate reader. The results were presented as inhibition (%) of proliferation compared to controls comprising 0.1% DMSO.

Data set [2] concerns epithelial cancer cell line (A-549). The data set can be described thus: Anti-proliferative propidium iodide fluorescence assay, A-549. Type of data set: cell-based. The settings on record: Homo sapiens, A549; read-out: Anti-Proliferative Activity IC50 ± SEM, A-549. As for the experimental part:
(§1) Tested 8a–l compounds were assessed for their anti-proliferative activity against four human cancer cell lines, including the pancreatic cancer cell line (Panc-1), breast cancer cell line (MCF-7), colon cancer cell line (HT-29), and epithelial cancer cell line (A-549) using propidium iodide fluorescence assay and the reference doxorubicin. Results (IC50) are illustrated in Table 3.
(§2) To explore the anti-proliferative potential of compounds, propidium iodide fluorescence assay was performed using different cell lines such as Panc-1 (pancreas cancer cell line), MCF-7 (breast cancer cell line), HT-29 (colon cancer cell line), and A-549 (epithelial cancer cell line), respectively. To calculate the total nuclear DNA, a fluorescent dye (propidium iodide, PI) is used to attach to the DNA, thus offering a quick and precise technique. PI cannot pass through the cell membrane, and its signal intensity can be considered as directly proportional to the quantity of cellular DNA. Cells whose cell membranes are damaged or have changed permeability are counted as dead ones. The assay was performed by seeding the cells of different cell lines at a density of 3000–7500 cells/well (in 200 μL medium) in culture plates followed by incubation for 24 h at 37 °C in humidified 5%CO2/95% air atmospheric conditions. The medium was removed; the compounds were added to the plates at 10 μM concentrations (in 0.1% DMSO) in triplicates, followed by incubation for 48h. DMSO (0.1%) was used as a control. After incubation, the medium was removed, followed by the addition of PI (25 μL, 50 μg/mL in water/medium) to each well of the plates. At −80 °C, the plates were allowed to freeze for 24 h, followed by thawing at 25 °C. A fluorometer (Polar-Star BMG Tech, Beijing, China) was used to record the readings at excitation and emission wavelengths of 530 and 620 nm for each well. The percentage cytotoxicity of compounds was calculated using the following formula: % Cytotoxicity=AC−ATC/AC×100 where ATC = absorbance of treated cells and AC = absorbance of control. Doxorubicin was used as a positive control in the assay.

Data set [3] relates to colon cancer cell line (HT-29). Briefly: Anti-proliferative propidium iodide fluorescence assay, HT-29. Type of data set: cell-based. The settings on record: Homo sapiens, read-out: Anti-Proliferative Activity IC50 ± SEM, HT-29. As for the experimental part: as §1, §2
For data set [4], the system named is A-549, MCF-7, Panc-1 and HT-29 cell lines. The data set can be described thus: Average anti-proliferative IC50 over the four cancer cell lines. Type of data set: cell-based, human. Particulars: for IC50: Homo sapiens, average of A-549, MCF-7, Panc-1, HT-29; for fold decrease in activity relative to 8c: from average IC50. How it is done: Tested 8a–l compounds were assessed for their anti-proliferative activity against four human cancer cell lines, including the pancreatic cancer cell line (Panc-1), breast cancer cell line (MCF-7), colon cancer cell line (HT-29), and epithelial cancer cell line (A-549) using propidium iodide fluorescence assay and the reference doxorubicin.
as §2

Data set [5] deals with pancreatic cancer cell line (Panc-1). The data set can be described thus: Anti-proliferative propidium iodide fluorescence assay, Panc-1. It is filed as cell-based. Particulars: Homo sapiens, read-out: Anti-Proliferative Activity IC50 ± SEM, Panc-1. As for the experimental part:
as §1, §2

For data set [6], the system named is breast cancer cell line (MCF-7). Briefly: Anti-proliferative propidium iodide fluorescence assay, MCF-7. Type of data set: cell-based. Particulars: Homo sapiens, MCF7; read-out: Anti-Proliferative Activity IC50 ± SEM, MCF-7. As for the experimental part:
as §1, §2

The next data set concerns active Caspase 3. Briefly: Caspase 3 activation assay in MCF-7.

Each structure is given as a SMILES string.

Experimental for active Caspase 3: All reagents were allowed to reach room temperature before use. All liquid reagents were gently mixed before use. The number of 8-well strips needed for the assay was determined. These were inserted into the frame(s) for current use. A total of 100 μL of the Standard Diluent Buffer was added to the zero standard wells. Well(s) reserved for chromogen blank were left empty. A total of 100 μL of standards and controls or diluted samples was added to the appropriate microtiter wells. The sample dilution chosen was optimized for each experimental system. The side of the plate was gently tapped on to mix. Wells were covered with a plate cover and incubated for 2 h at room temperature. […]
The working dilution was prepared as described in Preparing IgG HRP. […] The incubation time for chromogen substrate was determined by the microtiter plate reader used.
Many plate readers have the capacity to record a maximum optical density (O.D.) of 2.0. The O.D. values were monitored, and the substrate reaction was stopped before the O.D. of the positive wells exceeds the limits of the instrument. The O.D. values at 450 nm could only be read after the Stop Solution had been added to each well. […] The absorbance of each well was read at 450 nm, having blanked the plate reader against a chromogen blank composed of 100 μL each of Stabilized Chromogen and Stop Solution. […]

`O=c1cc(-n2cc(COc3ccc(C(c4c(O)c5ccccc5[nH]c4=O)c4c(O)c5ccccc5[nH]c4=O)cc3)nn2)c2ccccc2[nH]1` [Compound 8a, 3,3’-((4-((1-(2-oxo-1,2-dihydroquinolin-4-yl)-1H-1,2,3-triazol-4-yl)methoxy)phenyl)-methylene)bis(4-hydroxyquinolin-2(1H)-one)]: in data set [1], the viability at 96 h, 50 µM came to 89%. Moreover, the IC50 is 5.7 ± 0.4 µM in data set [2]; 5.7 ± 0.4 µM in data set [3]; 5.58 µM in data set [4]; 5.6 ± 0.6 µM in data set [5]; 5.3 ± 0.8 µM in data set [6]. In addition, in data set [4], the “fold decrease in activity relative to 8c” value is on record as 1.5 fold.

As to `Cc1ccc2[nH]c(=O)cc(-n3cc(COc4ccc(C(c5c(O)c6ccccc6[nH]c5=O)c5c(O)c6ccccc6[nH]c5=O)cc4)nn3)c2c1` [Compound 8b, 3,3’-((4-((1-(6-Methyl-2-oxo-1,2-dihydroquinolin-4-yl)-1H-1,2,3-triazol-4-yl)methoxy)phenyl)methylene)bis(4-hydroxyquinolin-2(1H)-one)], the viability at 96 h, 50 µM in data set [1] was found to be 87%. Further, the half-inhibitory concentration (IC50) in data set [2] amounted to 7.6 ± 0.8 µM; in data set [3] it was 7.5 ± 0.4 µM; in data set [4], 7.4 µM; in data set [5], 7.6 ± 0.6 µM; in data set [6] it was 6.9 ± 0.8 µM. Besides, the “fold decrease in activity relative to 8c” value in data set [4] was 2 fold.

Take `COc1ccc2[nH]c(=O)cc(-n3cc(COc4ccc(C(c5c(O)c6ccccc6[nH]c5=O)c5c(O)c6ccccc6[nH]c5=O)cc4)nn3)c2c1` [Compound 8c, 3,3’-((4-((1-(6-Methoxy-2-oxo-1,2-dihydroquinolin-4-yl)-1H-1,2,3-triazol-4-yl)methoxy)phenyl)methylene)bis(4-hydroxyquinolin-2(1H)-one)]: the viability at 96 h, 50 µM in data set [1] was found to be 91%. Further, the IC50 was 3.9 ± 0.5 µM in data set [2]; 4.2 ± 0.2 µM in data set [3]; 3.85 µM in data set [4]; 4.1 ± 0.2 µM in data set [5]; 3.2 ± 0.08 µM in data set [6].

`Cn1c(=O)cc(-n2cc(COc3ccc(C(c4c(O)c5ccccc5[nH]c4=O)c4c(O)c5ccccc5[nH]c4=O)cc3)nn2)c2ccccc21` [Compound 8d, 3,3’-((4-((1-(1-Methly-2-oxo-1,2-dihydroquinolin-4-yl)-1H-1,2,3-triazol-4-yl)methoxy)phenyl)methylene)bis(4-hydroxyquinolin-2(1H)-one)] returned a viability at 96 h, 50 µM in data set [1] of 89%. Besides, the IC50 was 12.9 ± 0.8 µM in data set [2]; 11.4 ± 1.2 µM in data set [3]; 11.8 µM in data set [4]; 11.6 ± 0.8 µM in data set [5]; 11.5 ± 1.1 µM in data set [6].

Take `COc1ccc2[nH]c(=O)c(C(c3ccc(OCc4cn(-c5cc(=O)[nH]c6ccc(C)cc56)nn4)cc3)c3c(O)c4cc(OC)ccc4[nH]c3=O)c(O)c2c1` [Compound 8f, 3,3’-((4-((1-(6-Methyl-2-oxo-1,2-dihydroquinolin-4-yl)-1H-1,2,3-triazol-4-yl)methoxy)phenyl)methylene)bis(4-hydroxy-6-methoxyquinolin-2(1H)-one)]: the viability at 96 h, 50 µM in data set [1] turned out to be 87%. Moreover, the “Caspase 3 Conc” value in the data set with active Caspase 3 (MCF-7) is 365.60 ± 3.20 pg/mL. For the same compound, the “Caspase 3 Fold Change” value in the data set with active Caspase 3 (MCF-7, versus untreated control) came out at 5.57 fold. In addition, the IC50 in data set [2] stood at 2.9 ± 0.5 µM; in data set [3] it was 3.4 ± 0.2 µM; in data set [4], 3 µM; in data set [5], 3.1 ± 0.2 µM; in data set [6] it was 2.6 ± 0.8 µM.

For `COc1ccc2[nH]c(=O)c(C(c3ccc(OCc4cn(-c5cc(=O)n(C)c6ccccc56)nn4)cc3)c3c(O)c4cc(OC)ccc4[nH]c3=O)c(O)c2c1` [Compound 8h, 3,3’-((4-((1-(1-Methly-2-oxo-1,2-dihydroquinolin-4-yl)-1H-1,2,3-triazol-4-yl)methoxy)phenyl)methylene)bis(4-hydroxy-6-methoxyquinolin-2(1H)-one)], the viability at 96 h, 50 µM in data set [1] was found to be 90%. Moreover, the IC50 in data set [2] was 10.7 ± 2.5 µM; in data set [3], 10.8 ± 1.6 µM; in data set [4], 10.7 µM; in data set [5] it was 10.8 ± 1.9 µM; in data set [6] it was 10.6 ± 2.9 µM.

Compound `Cn1c(=O)c(C(c2ccc(OCc3cn(-c4cc(=O)[nH]c5ccccc45)nn3)cc2)c2c(O)c3ccccc3n(C)c2=O)c(O)c2ccccc21` [Compound 8i, 3,3’-((4-((1-(2-oxo-1,2-dihydroquinolin-4-yl)-1H-1,2,3-triazol-4-yl)methoxy)phenyl)-methylene)bis(4-hydroxy-1-methylquinolin-2(1H)-one)] returned a viability at 96 h, 50 µM in data set [1] of 90%. The IC50 in data set [2] came to 17.9 ± 0.3 µM; in data set [3] it was 17.9 ± 1.1 µM; in data set [4], 17.8 µM; in data set [5] it was 17.6 ± 1.5 µM; in data set [6], 17.8 ± 1.6 µM.

For the compound `Cc1ccc2[nH]c(=O)cc(-n3cc(COc4ccc(C(c5c(O)c6ccccc6n(C)c5=O)c5c(O)c6ccccc6n(C)c5=O)cc4)nn3)c2c1` [Compound 8j, 3,3’-((4-((1-(6-Methyl-2-oxo-1,2-dihydroquinolin-4-yl)-1H-1,2,3-triazol-4-yl)methoxy)phenyl)methylene)bis(4-hydroxy-1-methylquinolin-2(1H)-one)], in data set [1], the viability at 96 h, 50 µM worked out at 81%. Moreover, the IC50 was found to be 22.5 ± 0.2 µM in data set [2]; 22.9 ± 0.6 µM in data set [3]; 22.5 µM in data set [4]; 22.4 ± 0.2 µM in data set [5]; 22.1 ± 0.1 µM in data set [6].

`COc1ccc2[nH]c(=O)cc(-n3cc(COc4ccc(C(c5c(O)c6ccccc6n(C)c5=O)c5c(O)c6ccccc6n(C)c5=O)cc4)nn3)c2c1` [Compound 8k] registered a viability at 96 h, 50 µM in data set [1] of 90%. Also, the IC50 was determined as 14.5 ± 2.6 µM in data set [2]; 14.8 ± 1.4 µM in data set [3]; 14.4 µM in data set [4]; 14.6 ± 2.9 µM in data set [5]; 13.6 ± 2.2 µM in data set [6].

In turn, `Cn1c(=O)cc(-n2cc(COc3ccc(C(c4c(O)c5ccccc5n(C)c4=O)c4c(O)c5ccccc5n(C)c4=O)cc3)nn2)c2ccccc21` [Compound 8l, 3,3’-((4-((1-(1-Methyl-2-oxo-1,2-dihydroquinolin-4-yl)-1H-1,2,3-triazol-4-yl)methoxy)phenyl)methylene)bis(4-hydroxy-1-methylquinolin-2(1H)-one)] came in with a viability at 96 h, 50 µM in data set [1] of 96%. Moreover, the 50% inhibitory concentration (IC50) is 25.3 ± 2.5 µM in data set [2]; 24.2 ± 1.4 µM in data set [3]; 24.7 µM in data set [4]; 24.5 ± 2.3 µM in data set [5]; 24.9 ± 1.8 µM in data set [6]. For the same compound, the “fold reduction of the average IC50 value relative to 8a” value in data set [4] (replacement of NH by N-CH3) is given as “at least 4 fold”.

For the origin of these results see publication PMC8620910, “Design and Synthesis of (2-oxo-1,2-Dihydroquinolin-4-yl)-1,2,3-triazole Derivatives via Click Reaction: Potential Apoptotic Antiproliferative Agents” (Molecules, 2021).
